Tests used:
Factor XIIa = molecular target: T1, Factor XIIa (Homo sapiens, UniProt P00748); assay: Inhibition of Factor XIIa, PFR-AMC substrate; type: biochemical
T1 sequence (P00748 373-615 limits assumed): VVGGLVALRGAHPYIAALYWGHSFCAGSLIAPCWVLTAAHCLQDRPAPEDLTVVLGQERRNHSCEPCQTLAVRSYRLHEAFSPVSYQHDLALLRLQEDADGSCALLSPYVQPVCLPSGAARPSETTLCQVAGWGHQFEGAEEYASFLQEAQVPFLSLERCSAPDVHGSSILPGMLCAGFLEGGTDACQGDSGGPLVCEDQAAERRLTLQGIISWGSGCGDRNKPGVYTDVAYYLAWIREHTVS

Bovine chymotrypsin = Bovine chymotrypsin (Bos taurus, UniProt P00766); assay: Inhibition of chymotrypsin, AAPF-pNA substrate; type: biochemical; settings: Chymotrypsin (5 nM), AAPF-pNA 0.08 mM

In the case of `CC[C@H](C)[C@H](N)C(=O)N[C@@H](Cc1c[nH]cn1)C(=O)N[C@@H](CC(=O)O)C(=O)N[C@@H](Cc1ccccc1)C(=O)N[C@H]1CSSC[C@@H](C(=O)N[C@@H](C)C(=O)N[C@H](C(=O)N[C@H](C(=O)O)C(C)C)[C@@H](C)O)NC(=O)[C@H](CCCCN)NC(=O)[C@H](CCCCN)NC(=O)[C@H](CC(C)C)NC(=O)[C@@H]2CSSC[C@@H]3NC(=O)[C@H](CO)NC(=O)CNC(=O)[C@H](CC(=O)O)NC(=O)[C@H]([C@@H](C)O)NC(=O)[C@H](C(C)C)NC(=O)[C@H](CC(N)=O)NC(=O)[C@H](Cc4ccc(O)cc4)NC(=O)[C@H](Cc4c[nH]c5ccccc45)NC(=O)[C@H](Cc4c[nH]c5ccccc45)NC(=O)[C@H](CCCNC(=N)N)NC(=O)[C@@H]4CCCN4C(=O)[C@H](CCSC)NC(=O)[C@H](CO)NC(=O)[C@H](C)NC(=O)[C@H](CCCNC(=N)N)NC(=O)[C@H](CSSC[C@H](NC(=O)CNC(=O)CNC(=O)[C@H](Cc4ccc(O)cc4)NC(=O)[C@H](C(C)C)NC(=O)[C@H](Cc4ccccc4)NC(=O)[C@H](CC(C)C)NC(=O)[C@H](CCC(N)=O)NC3=O)C(=O)N[C@@H](CC(=O)O)C(=O)NCC(=O)N[C@@H](CC(N)=O)C(=O)N[C@@H](CO)C(=O)N[C@@H](CC(N)=O)C(=O)N[C@@H](CC(N)=O)C(=O)N[C@@H](Cc3ccc(O)cc3)C(=O)N[C@@H](CC(C)C)C(=O)N[C@@H]([C@@H](C)O)C(=O)N[C@@H](CCCCN)C(=O)N[C@@H](CCC(=O)O)C(=O)N[C@@H](CCC(=O)O)C(=O)N2)NC(=O)[C@H](CCCNC(=N)N)NC(=O)CNC(=O)[C@H](C(C)C)NC(=O)[C@H](C(C)C)NC(=O)[C@H](CCCCN)NC(=O)[C@H](CO)NC(=O)[C@H](C(C)C)NC(=O)[C@H](CC(C)C)NC1=O` [bikunin (7–64)], the Ki (Factor XIIa) is reported as > 300 nM and the Ki (Bovine chymotrypsin) is reported as 0.6 nM.

From patent US7019123B2, “Human bikunin” (Bayer Corporation, priority 1996, dated 2006)
